{
  "source": "patent US7405317B2",
  "about": "“Phosphate-bearing prodrugs of sulfonyl hydrazines as hypoxia-selective antineoplastic agents” (priority 2004, dated 2008)",
  "key": {"[1]": {"system": "EMT6 murine mammary carcinoma cells", "experiment": "Aerobic/hypoxic cell survival (clonogenic assay), EMT6", "format": "cell-based", "conditions": "for cell kill: 0.1% oxygen, 10 μM drug concentration; for cell kill / cytotoxicity to EMT6 cells under oxygenated conditions: FIG. 5; for drug activity as a function of oxygen concentration: 10 or 25 μM, oxygen 0.05% to 21%, FIG. 6; for cytotoxicity to EMT6 cells under oxygenated conditions: normal air (21% oxygen), concentrations up to 25 μM; for in vitro cytotoxic activity to EMT6 cells versus parental racemic drug (potency and aerobic/hypoxic differential): de-phosphorylated enantiomers, aerobic/hypoxic cell assay", "protocol": "(§1) EMT6 or CHO (parental or human cytochrome P-450 reductase transfected) cells, seeded in glass milk dilution bottles, were gassed for 2 hours through a rubber septum fitted with 13 gauge (inflow) and 18 gauge (outflow) needles with a mixture of 5% CO2, oxygen at various concentrations, with the balance of the mixture made up of nitrogen, to establish various hypoxic conditions. Drugs were then injected without disrupting hypoxia. After two hours, cells were collected and plated in a clonogenic assay to determine the surviving fraction, compared to untreated controls.\n(§2) For in vitro analysis, KS119W must be converted to KS119OH (1) in an AP-catalyzed reaction shown above in FIG. 2, as the phosphorylated parent drug cannot cross cell membranes. KS119OH is then used in all subsequent in vitro studies shown in this section.\nMoreover, the R- and S-enantiomers of KS119W (VNP40541 and VNP40551) were converted to the corresponding de-phosphorylated forms for study in the in vitro aerobic/hypoxic cell assay."}, "[2]": {"system": "H460 human lung carcinoma", "format": "in vivo, mice", "conditions": "for tumor growth inhibition: H460 in CD-1 nude mice, KS119W 4 doses 180 mg/kg and 1 dose 240 mg/kg, CTX 100 mg/kg per dose, ip on days 15, 22, 27, 34, 43, CTX two hours after KS119W, FIG. 9; for reduction of final tumor volume compared with control group: H460, daily ip, FIG. 8", "protocol": "(§3) The anti-tumor effects of aforementioned prodrugs are evaluated in both solid and liquid tumor models, including the B16-F10 murine melanoma, HTB177 human lung carcinoma models, DLD1 human colon carcinoma, EMT-6 murine mammary gland carcinoma, L1210 murine leukemia, lymphoma, prostate cancer, pancreatic cancer, and head-and-neck cancer. The prodrugs are given intravenously, orally, or intraperitoneally at doses from 10 mg/kg to 2000 mg/kg; they are give at different dosing schedules such as 4 times daily, once daily, or once every several days for up to 60 doses. Testing tumor cells were implanted subcutaneously into mice, which were randomized into groups immediately after tumor cell implantation (Day 0). Mice were injected intraperitoneally (ip) with either a bolus injection of 0.1 mL PBS or drug. The treatment was carried out in a designed dosing schedule. Tumor measurement in three dimensions was determined once a week with the formula L×H×W/2, where L, H, and W represent length, height, and width, respectively.\n(§4) Efficacy of KS119 was studied in murine tumor model and human xenograft models. EMT-6 murine mammary carcinoma cells (3×10^5 cells/mouse) were implanted subcutaneously into Balb/c mice. H460 human lung carcinoma cells, HT29 human colon carcinoma cells and SHP77 human lung carcinoma cells were established as solid xenografts in nu/nu CD-1 mice and Scid/Beige mice with 7×10^7 cells/mouse, respectively. After implantation, tumors were allowed to grow to a size of 150 to 200 mm^3 before starting treatment with KS119. KS119 was formulated in a solvent containing polyethylene glycol 300 (PEG), ethyl alcohol, citric acid, and ascorbic acid.\n(§5) Efficacies of KS119W and KS119 were compared with equivalence molar doses in EMT-6 tumor and H460 tumor models. KS119W was formulated with 0.25M sodium bicarbonate solution. The treatment was started when tumors researched 150 to 200 mm^3, and lasted up to 2 weeks. KS119 at doses of 80 and 100 mg/kg and KS119W at doses of 97.6 and 121.3 mg/kg were daily administrated into mice via ip injection. […] To assess the toxicity of treatment, body weight and peripheral blood cell count were monitored after treatment.\n(§6) Combined therapy of KS119W with cytoxan (CTX) was evaluated by using KS119W at dose below the MTD in combination with nontoxic dose of CTX against EMT-6 murine mammary carcinoma and H460 human lung carcinoma in CD-1 nude mice. The tumors were allowed to grow to a size of approximately 200 mm^3. In H460 tumor model, the animals received either with 4 doses 180 mg/kg and 1 dose 240 mg/kg of KS119 or CTX at dose of 100 mg/kg per dose per animal, ip injecting the drugs on 15, 22, 27, 34 and 43 days after the tumor implantation. In the combination studies, CTX was given two hours after dosing KS119W."}, "[3]": {"system": "EMT-6 murine mammary carcinoma", "format": "in vivo, mice", "conditions": "for tumor growth inhibition: EMT-6, KS119W daily 97 mg/kg for 7 doses, CTX 100 mg/kg ip once per week for 4 doses", "protocol": "as §3, §4, §5, §6"}, "[4]": {"experiment": "Solubility of KS119 in co-solvent system", "format": "physicochemical", "conditions": "polyethylene glycol (PEG) and ethanol co-solvent system, organic solvent or mixture, read-out: solubility in co-solvent system like polyethylene glycol (PEG) and ethanol"}, "[5]": {"experiment": "Toxicity of treatment in tumor-bearing mice (body weight, blood cell count, appearance)", "format": "in vivo", "conditions": "for toxicity of treatment (body weight, peripheral blood cell count): KS119 80 and 100 mg/kg, KS119W 97.6 and 121.3 mg/kg, daily ip", "protocol": "as §3, with “respectively. The toxicity of these drugs in mice was mild as determined by body weight loss and animal appearance.” for “respectively.”\nEfficacies of KS119W and KS119 were compared with equivalence molar doses in EMT-6 tumor and H460 tumor models. KS119W was formulated with 0.25M sodium bicarbonate solution. The treatment was started when tumors researched 150 to 200 mm^3, and lasted up to 2 weeks. KS119 at doses of 80 and 100 mg/kg and KS119W at doses of 97.6 and 121.3 mg/kg were daily administrated into mice via ip injection. […] The toxicity of KS119 and KS119W were dose-dependent. To assess the toxicity of treatment, body weight and peripheral blood cell count were monitored after treatment.\nas §6, with “KS119W. […] The inhibition of combination therapy was statistically significant against all control groups with p values of 0.003, 0.015 and 0.038, respectively. Additive toxicity at the doses used for combination was manageable; while the 180 mg/kg qw ×4 doses of KS119W alone caused a maximum net body weight loss of 4.5%, the same dose in combination with 4 doses of CTX at 100 mg/kg per week caused 8.6% weight loss but no death. A similar degree of growth inhibition was also observed with EMT-6 tumor model. […]” for “KS119W.”"}, "[6]": {"system": "CHO-SCS-II (non-transfected parental line)", "experiment": "Aerobic/hypoxic cell survival, parental CHO cells", "format": "cell-based", "conditions": "drug 10 μM", "protocol": "as §1, §2\n(§7) Like KS119, cytochrome P-450 reductase can activate KS1190H under hypoxic conditions."}, "[7]": {"system": "CHO-450red (human cytochrome P-450 reductase transfected CHO cells)", "experiment": "Aerobic/hypoxic cell survival, cytochrome P-450 reductase transfected CHO cells", "format": "cell-based", "conditions": "drug 10 μM", "protocol": "as §1, §2, §7"}, "[8]": {"experiment": "Maximum tolerated dose (MTD) finding", "format": "in vivo, mice", "protocol": "In order to fairly select a better compound from two enantiomers of KS119W for future clinical development, finding maximum tolerated dose (MTD) for VNP40541 (R-form) and VNP40551 (S-form) was conducted and the results were shown as Table 3."}, "[9]": {"system": "SHP77 human lung carcinoma", "experiment": "In vivo anti-tumor activity, SHP77 xenograft", "parameters": "species or system mice", "conditions": "SHP77/Scid-Beige; dose VNP40541 110 mpk, VNP40551 85 mpk", "protocol": "as §3, with “respectively. The toxicity of these drugs in mice was mild as determined by body weight loss and animal appearance.” for “respectively.”\nEfficacy of KS119 was studied in murine tumor model and human xenograft models. EMT-6 murine mammary carcinoma cells (3×10^5 cells/mouse) were implanted subcutaneously into Balb/c mice. […]"}, "[10]": {"conditions": "KS119W 97.2 mg/kg ×10 doses, KS119 equal molar dose 80 mg/kg"}, "[11]": {"conditions": "KS119W 121.6 mg/kg ×7 doses, KS119 equal molar dose 100 mg/kg"}},
  "note": "Like-named read-outs stand apart in the source and are kept apart here.",
  "data": [
    {"smiles": "CC(OC(=O)N(N(CCCl)S(C)(=O)=O)S(C)(=O)=O)c1ccc([N+](=O)[O-])c(O)c1", "note": "(racemic) [KS119OH]", "values": [
      {"measurement": "cell kill", "setting": "[1]", "result": "~5 orders of magnitude"},
      {"measurement": "drug activity as a function of oxygen concentration", "setting": "[1]", "result": "significant drug activity at all oxygen concentrations below 10% oxygen"},
      {"measurement": "cytotoxicity to EMT6 cells under oxygenated conditions", "setting": "[1]", "result": "virtually inactive"}
    ]},
    {"smiles": "O=P1(N(CCCl)CCCl)NCCCO1", "note": "(stereo not shown) [CTX, reference compound]", "values": [
      {"measurement": "tumor growth inhibition", "setting": "[2]", "result": 54, "unit": "%"},
      {"measurement": "tumor growth inhibition", "setting": "[3]", "result": "negligible effect"}
    ]},
    {"smiles": "CC(OC(=O)N(N(CCCl)S(C)(=O)=O)S(C)(=O)=O)c1ccc([N+](=O)[O-])cc1", "note": "(stereo not shown) [KS119, 1,2-Bis(methylsulfonyl)-2-(2-chloroethyl)-hydrazine carboxylic acid 1-(4-nitrophenyl)ethyl ester, reference compound]", "values": [
      {"measurement": "reduction of final tumor volume compared with control group", "setting": "[2]; [10]", "result": 40, "unit": "%"},
      {"measurement": "reduction of final tumor volume compared with control group", "setting": "[2]; [11]", "result": 40, "unit": "%"},
      {"measurement": "solubility", "setting": "[4]", "result": "< 5000", "unit": "µg/mL"},
      {"measurement": "toxicity of treatment (body weight, peripheral blood cell count)", "setting": "[5]", "result": "not significant hematological toxicity or severe weight loss"},
      {"measurement": "cell kill", "setting": "[1]", "result": "~5 orders of magnitude"},
      {"measurement": "drug activity as a function of oxygen concentration", "setting": "[1]", "result": "significant drug activity at all oxygen concentrations below 10% oxygen"},
      {"measurement": "cytotoxicity to EMT6 cells under oxygenated conditions", "setting": "[1]", "result": "virtually inactive"}
    ]},
    {"smiles": "CC(OC(=O)N(N(CCCl)S(C)(=O)=O)S(C)(=O)=O)c1ccc([N+](=O)[O-])c(OP(=O)(O)O)c1", "note": "(stereo not shown) [KS119W, 1,2-Bis(methylsulfonyl)-2-(2-chloroethyl)hydrazine-carboxylic acid 1-(3-dihydrogenphosphonoxy-4-nitrophenyl)ethyl ester]", "values": [
      {"measurement": "reduction of final tumor volume compared with control group", "setting": "[2]; [10]", "result": 60, "unit": "%"},
      {"measurement": "reduction of final tumor volume compared with control group", "setting": "[2]; [11]", "result": 78, "unit": "%"},
      {"measurement": "tumor growth inhibition", "setting": "[2]", "result": 78, "unit": "%"},
      {"measurement": "tumor growth inhibition", "setting": "[3]", "result": 59, "unit": "%"},
      {"measurement": "Surviving fraction at 0.1% oxygen", "setting": "[6]", "result": 0.3336},
      {"measurement": "Surviving fraction in air", "setting": "[6]", "result": 1.185},
      {"measurement": "toxicity of treatment (body weight, peripheral blood cell count)", "setting": "[5]", "result": "not significant hematological toxicity or severe weight loss"},
      {"measurement": "maximum net body weight loss", "setting": "[5]; KS119W 180 mg/kg qw ×4 doses alone or with 4 doses of CTX at 100 mg/kg per week", "result": 4.5, "unit": "%"},
      {"measurement": "Surviving fraction at 0.1% oxygen", "setting": "[7]", "result": 0.009444},
      {"measurement": "Surviving fraction in air", "setting": "[7]", "result": 0.8791}
    ]},
    {"smiles": "C[C@@H](OC(=O)N(N(CCCl)S(C)(=O)=O)S(C)(=O)=O)c1ccc([N+](=O)[O-])c(O)c1", "note": "[R-KS119OH]", "values": [
      {"measurement": "in vitro cytotoxic activity to EMT6 cells versus parental racemic drug (potency and aerobic/hypoxic differential)", "setting": "[1]", "result": "very similar to the parental racemic drug"}
    ]},
    {"smiles": "C[C@H](OC(=O)N(N(CCCl)S(C)(=O)=O)S(C)(=O)=O)c1ccc([N+](=O)[O-])c(O)c1", "note": "[S-KS119OH]", "values": [
      {"measurement": "in vitro cytotoxic activity to EMT6 cells versus parental racemic drug (potency and aerobic/hypoxic differential)", "setting": "[1]", "result": "very similar to the parental racemic drug"}
    ]},
    {"smiles": "C[C@H](OC(=O)N(N(CCCl)S(C)(=O)=O)S(C)(=O)=O)c1ccc([N+](=O)[O-])c(OP(=O)(O)O)c1", "note": "[VNP40551]", "values": [
      {"measurement": "MTD", "setting": "[8]; BALB/c mice, × 5", "result": 85, "unit": "mpk"},
      {"measurement": "MTD", "setting": "[8]; Nude CD-1 mice, × 10", "result": 80, "unit": "mpk"},
      {"measurement": "MTD", "setting": "[8]; Scid/Beige mice, × 8", "result": 85, "unit": "mpk"},
      {"measurement": "Inhibition (%)", "setting": "[2]; H460/Nude Mice, dose VNP40541 80-140 mpk, VNP40551 40-80 mpk", "result": "53-80%"},
      {"measurement": "Inhibition (%)", "setting": "[3]; EMT6/BLAB-c Mice, dose VNP40541 85-115 mpk, VNP40551 55-85 mpk", "result": "52-78%"},
      {"measurement": "Surviving fraction at 0.1% oxygen", "setting": "[6]", "result": 0.1188},
      {"measurement": "Surviving fraction in air", "setting": "[6]", "result": 1.148},
      {"measurement": "Inhibition (%)", "setting": "[9]", "result": 82, "unit": "%"},
      {"measurement": "Surviving fraction at 0.1% oxygen", "setting": "[7]", "result": 0.002553},
      {"measurement": "Surviving fraction in air", "setting": "[7]", "result": 1.015}
    ]}
  ]
}
